These results are taken from EP3290412A1, “HIV-1 NUCLEOCAPSID INHIBITORS” (Università degli Studi di Siena, priority 2016, dated 2018).

pIC50: −log10 of the molar value. A value given as a limit tells only on which side of the number the result lay.

For orientation: pIC50 means −log10 of the IC50, conventionally taken in molar units. High values mean a low IC50, low ones a high IC50. What is called inhibition is how much of the control response was suppressed. Low readings indicate little suppression, high ones strong suppression.

One experiment addresses NC(11-55) (Human immunodeficiency virus type 1, UniProt P12493). Briefly: NC inhibition assay (NC-induced cTAR DNA destabilization, fluorescence). The format is biochemical, HIV-1. The note with it: for inhibition at 100 µM: single point screening, positive = >25% inhibition at 100µM. From the text:
The NC inhibition assay is based on the nucleic acid chaperone activity of the NC protein. NC destabilizes the secondary structure of cTAR DNA, the complementary sequence of the transactivation response element, which is involved in minus-strand DNA transfer during reverse transcription. In the assay, the cTAR sequence from the HIV-1 Mal strain (Bernacchi et al, J Mol Biol, 2002) is labeled with a dye (Alexa488 fluorophore) and a quencher 4-(4'-dimethylaminophenylazo)benzoic acid (Dabcyl) at its 5' and 3' ends, respectively. In the absence of destabilization, the close proximity of both cTAR ends results in a strong fluorescence quenching of the dye emission by the Dabcyl group. NC(11-55) added to cTAR at a ratio of 10 NC/cTAR melts the bottom of the cTAR stem, which increases the distance between the dye and the quencher and as a result increases the dye fluorescence signal [Shvadchak et al, (2009) Identification by high throughput screening of small compounds inhibiting the nucleic acid destabilization activity of the HIV-1 nucleocapsid protein. Biochimie, 916-923]. NCIs are expected to prevent the NC-induced destabilization of cTAR and thus reverse the NC-induced increase in the fluorescence of the labeled cTAR. The activity of the inhibitor is thus evaluated from the ratio of the fluorescence intensity observed in the presence of NC with the molecule to the one in the absence of the compound.
The doubly labelled cTAR DNA oligonucleotides (55nt) were synthesised and purified by IBA GmbH Nucleic Acids Product Supply (Göttingen, Germany). Extinction coefficient at 260 nm of 5.73 x 10^5 M^-1 cm^-1 was used to determine the concentration of cTAR.
The NC(11-55) peptide (Avilov et al, Antimicrob Agents Chemother, 2012) was synthesized by solid-phase peptide synthesis on a 433A synthesizer (ABI, Foster City, CA) as previously described [De Rocquigny H, (1991) First large scale chemical synthesis of the 72 amino acid HIV-1 nucleocapsid protein NCp7 in an active form. Biochem Biophys Res Commun., 1010-1018]. The peptide was stored lyophilized and was resuspended in water before use. The concentration of peptide was determined by using an extinction coefficient of 5.7 x 10^3 M^-1 cm^-1 at 280 nm. Next, 2.5 molar equivalents of ZnSO4 were added and pH was raised to its final value by adding buffer.
All experiments were performed at 20 °C in 25 mM Tris-HCl (pH 7.5), 30 mM NaCl, and 0.2 mM MgCl2. To evaluate the inhibition activity of compounds on NC-induced cTAR destabilization, cTAR DNA (0.1 µM) was preincubated with 1 µM NC(11-55) (molar ratio NC:cTAR = 10:1) for 15 min at room temperature before addition of compound. For single point screening, all compounds were tested at three final concentrations: 1 µM, 10 µM and 100 µM. For the IC50 determination, inhibition of NC-induced cTAR melting was monitored through addition of increasing concentrations of the selected molecules to the pre-formed NC(11-55)-cTAR complex. After the addition of compound, the mixture was incubated for 15 min at room temperature before the reading. The fluorescence signal was recorded with a plate reader Xenius (SAFAS Monaco) or Fluoromax 3 spectrofluorometer (Horiba Jobin-Yvon), and the excitation and emission wavelengths were 480 and 520 nm, respectively. The spectra were corrected for dilution, buffer fluorescence and screening effect (when it was required). In order to check the occurrence of aggregation, we performed additional reading of absorption with the plate reader Xenius (SAFAS Monaco) or Cary 4000 spectrophotometer (Agilent). […]

Experiment [1] has as its target T1, full length (1-55) HIV-1 NCp7 (Human immunodeficiency virus type 1 group M subtype B, UniProt P12493).
T1 construct: recombinant full length (1-55) HIV-1 NCp7 proteins; made in house
Description: Electromobility Shift Assay (EMSA), competition for ssDNA binding. The note with it: NCp7 300 nM, M13mp18 ssDNA; positive = >25% inhibition at 100µM. From the text:
The assay used a recombinant full length (1-55) HIV-1 NCp7 proteins based on the NL4-3 sequence (GenBank accession number AF324493). The protein was expressed and purified as described in [Carteau, S., Gorelick, R. J. & Bushman, F. D. Coupled integration of human immunodeficiency virus type 1 cDNA ends by purified integrase in vitro: stimulation by the viral nucleocapsid protein. Journal of virology 73, 6670-6679 (1999)].
Competition for single-stranded (ss) DNA binding was realized by mixing 1 µL of serial dilutions of NC inhibitors (diluted in DMSO) with 44 µL of NCp7 (300 nM) in a reaction buffer (20 mM Tris-HCl pH 7.4, 2 mM MgCl2, 100 mM NaCl, 1 mM DTT). 5 µL of a 10 ng/µL (4 nM) solution of M13mp18 ssDNA (BayouBiolabs) were then added and the tubes were incubated for 25 minutes at 37 °C. The reaction was terminated by chilling the tubes on ice followed by the addition of 5 µL of a loading buffer (30% glycerol, 0.01% xylene cyanol, 10 mM Tris-HCl pH 7.4). Samples were then resolved on 25 cm-long, 1% (w/v) agarose gels (SeaKem LE Agarose, Lonza) in 0.5x TBE. Gels were run in a Sub-Cell GT cuvette (BioRad) for 18 h at room temperature at 3 V/cm, stained with SybrGold (Molecular Probes) and scanned for fluorescence using a Typhoon 8600 (GE Healthcare). The experiments were performed in triplicate. Competition efficiency was realized by measuring the relative distance in pixels between the unbound ssDNA control, the NCp7-bound ssDNA control and the bound ssDNA for each points of the titration with the ImageQuant software. The IC50 was estimated as the NC inhibitors concentrations for which the bound ssDNA migrated at 50% of the distance separating the bound from the unbound ssDNA.
A general note: In EMSA bound probe runs differently from free probe, usually more slowly.

Turning to `Cc1nnc(C(=O)NC(C)(C)c2nc(C(=O)NCc3ccc(F)cc3)c(O)c(=O)n2C)o1` [Raltegravir™, Raltegravir, reference compound], the “HIV-1 nucleocapsid inhibition (result in words)” value at NC(11-55) (same experimental settings as the compounds of the invention) is “inactive”.

At NC(11-55), `CC1(C)CCC(NC(=O)c2nc(-c3ccccn3)nc(O)c2O)CC1` [Compound 58, N-(4,4-dimethylcyclohexyl)-5,6-dihydroxy-2-(pyridin-2-yl)pyrimidine-4-carboxamide] gave a pIC50 of 4.64 and an inhibition at 100 µM of more than 25%. Further, the EMSA screening results in experiment [1] is “Positive (A compound showing >25% inhibition when tested at 100µM concentration is considered as "positive")”.

On NC(11-55), `C[C@@H](NC(=O)c1nc(-c2cc(C(=O)OCc3ccccc3)ccn2)nc(O)c1O)C1CCCCC1` [Compound 46, benzyl (R)-2-(4-((1-cyclohexylethyl)carbamoyl)-5,6-dihydroxypyrimidin-2-yl)isonicotinate] had a pIC50 of 5.00 and an inhibition at 100 µM of more than 25%. In experiment [1], the EMSA screening results is listed as “Positive (A compound showing >25% inhibition when tested at 100µM concentration is considered as "positive")”.

Take `Cc1ccc(-c2nc(O)c(O)c(C(=O)N[C@H](C)C3CCCCC3)n2)nc1C` [Compound 67, (R)-N-(1-cyclohexylethyl)-2-(,5,6-dimethylpyridin-2-yl)-5,6-dihydroxypyrimidine-4-carboxamide]: the inhibition at 100 µM on NC(11-55) is more than 25%. Moreover, the EMSA screening results in experiment [1] is “Positive (A compound showing >25% inhibition when tested at 100µM concentration is considered as "positive")”.

On NC(11-55), `C[C@@H](NC(=O)c1nc(-c2nc3ccccc3[nH]2)nc(O)c1O)C1CCCCC1` [Compound 29, (R)-2-(1H-benzo[d]imidazol-2-yl)-N-(1-cyclohexylethyl)-5,6-dihydroxypyrimidine-4-carboxamide] gave a pIC50 of 5.60 and an inhibition at 100 µM of more than 25%. For the same molecule, in experiment [1], the EMSA screening results is listed as “Positive (A compound showing >25% inhibition when tested at 100µM concentration is considered as "positive")”.

On to `Cc1ccc(-c2nc(O)c(O)c(C(=O)N[C@H](C)C3CCCCC3)n2)nc1` [Compound 41, (R)-N-(1-cyclohexylethyl)-5,6-dihydroxy-2-(5-methylpyridin-2-yl)pyrimidine-4-carboxamide], for which the inhibition at 100 µM on NC(11-55) was more than 25%. In experiment [1], the EMSA screening results was “Positive (A compound showing >25% inhibition when tested at 100µM concentration is considered as "positive")”.

Turning to `C[C@@H](NC(=O)c1nc(-c2cccc(C(=O)OCc3ccccc3)n2)nc(O)c1O)C1CCCCC1` [Compound 54, benzyl (R)-6-(4-((1-cyclohexylethyl)carbamoyl)-5,6-dihydroxypyrimidin-2-yl)picolinate], at NC(11-55), the inhibition at 100 µM is more than 25%. Moreover, in experiment [1], the EMSA screening results is on record as “Positive (A compound showing >25% inhibition when tested at 100µM concentration is considered as "positive")”.

For the molecule `C[C@@H](NC(=O)c1nc(-c2ccc(C(=O)NCc3ccccc3)cn2)nc(O)c1O)C1CCCCC1` [Compound 50, (R)-2-(5-(benzylcarbamoyl)pyridin-2-yl)-N(1-cyclohexylethyl)-5,6-dihydroxypyrimidine-4-carboxamide], on NC(11-55), the pIC50 was 5.30 and the inhibition at 100 µM is more than 25%. Further, the EMSA screening results in experiment [1] is on record as “Positive (A compound showing >25% inhibition when tested at 100µM concentration is considered as "positive")”.

`O=C(NCCC1CCCC1)c1nc(-c2ccccn2)nc(O)c1O` [Compound 43, N-(2-cyclopentylethyl)-5,6-dihydroxy-2-(pyridin-2-yl)pyrimidine-4-carboxamide] showed an inhibition at 100 µM at NC(11-55) of more than 25%. Besides, the EMSA screening results in experiment [1] is on record as “Positive (A compound showing >25% inhibition when tested at 100µM concentration is considered as "positive")”.

On NC(11-55), `COc1ccc2nc(-c3nc(O)c(O)c(C(=O)N[C@H](C)C4CCCCC4)n3)ccc2c1` [Compound 66, (R)-N-(1-cyclohexylethyl)-5,6-dihydroxy-2-(6-methoxyquinolin-2-yl)pyrimidine-4-carboxamide] gave a pIC50 of 5.10 and an inhibition at 100 µM of more than 25%. Besides, in experiment [1], the EMSA screening results was “Positive (A compound showing >25% inhibition when tested at 100µM concentration is considered as "positive")”.

Regarding `CC1CCC(NC(=O)c2nc(-c3ccccn3)nc(O)c2O)CC1` (stereo not drawn) [Compound 56, 5,6-dihydroxy-N-(4-methylcyclohexyl)-2-(pyridin-2-yl)pyrimidine-4-carboxamide], on NC(11-55), the negative logarithm of the IC50 (pIC50) was 4.46 and the inhibition at 100 µM is more than 25%. Moreover, the EMSA screening results in experiment [1] is given as “Positive (A compound showing >25% inhibition when tested at 100µM concentration is considered as "positive")”.

At NC(11-55), `C[C@@H](NC(=O)c1nc(-c2ccc(C(N)=O)cn2)nc(O)c1O)C1CCCCC1` [Compound 51, (R)-2-(5-carbamoylpyridin-2-yl)-N-(1-cyclohexylethyl)-5,6-dihydroxypyrimidine-4-carboxamide] had a pIC50 of 5.00 and an inhibition at 100 µM of more than 25%. Besides, the EMSA screening results in experiment [1] was “Negative”.

At NC(11-55), `C[C@H](NC(=O)c1nc(-c2cc(C(F)(F)F)ccn2)nc(O)c1O)C1CCCCC1` [Compound 52, (S)-N-(1-cyclohexylethyl)-5,6-dihydroxy-2-(4-(trifluoromethyl)pyridin-2-yl)pyrimidine-4-carboxamide] gave a pIC50 of 4.58 and an inhibition at 100 µM of more than 25%. For the same molecule, the EMSA screening results in experiment [1] is reported as “Positive (A compound showing >25% inhibition when tested at 100µM concentration is considered as "positive")”.

As to `CC1CCCC(NC(=O)c2nc(-c3ccccn3)nc(O)c2O)C1` (stereo not drawn) [Compound 57, 5,6-dihydroxy-N-(3-methylcyclohexyl)-2-(pyridin-2-yl)pyrimidine-4-carboxamide], on NC(11-55), the pIC50 was 4.45 and the inhibition at 100 µM is more than 25%. In experiment [1], the EMSA screening results is given as “Positive (A compound showing >25% inhibition when tested at 100µM concentration is considered as "positive")”.

Consider `O=C(OC1CCCCC1)c1nc(-c2ccccn2)nc(O)c1O` [Compound 13, cyclohexyl 5,6-dihydroxy-2-(pyridin-2-yl)pyrimidine-4-carboxylate], for which, at NC(11-55), the pIC50 was 3.62 and the inhibition at 100 µM was more than 25%. Also, the EMSA screening results in experiment [1] is on record as “Negative”.
